Reference: patent US20250268909A1, “Combination Therapy” (US Oncology Corporate, Inc., priority 2022, published 2025)
“And” between values parts separate entries of the source, which are not always exact repeats. Identical values can stand only once.

Assays:
[1] = tested on: breast cancer xenograft models; details: alisertib added to either paclitaxel or docetaxel; cited from earlier work
[2] = phase II trial, dose modifications in ER+/ERBB2-negative cohort (safety population); format: in vivo, human
Description: (§1) Administration of 5 μg/kg filgrastim was allowed for treatment-limiting neutropenia, and loperamide was used to treat diarrhea but was not allowed prophylactically in cycle 1.
Incidence and grades of AEs for all patients were analyzed using the safety population which included all patients (eligible and ineligible) who received at least 1 dose of study drug. Toxic effects were reported and tabulated by numbers and frequencies for all related AEs. SAS statistical software version 9.4 (SAS Institute) was used for all data analysis. Data were analyzed from March through May 2019.

Pgp = Pgp (Homo sapiens, UniProt P08183); details: cell culture model; cited from earlier work
[3] = tested on: ER-positive, HER2-negative metastatic or locally recurrent breast cancer; assay: randomized phase II trial, ER+/HER2− cohort, efficacy; format: in vivo, human
Text: (§2) Other information about this phase II clinical trial is included in O'Shaughnessy et al., JAMA Network Open. 2021, 4(4):e214103, the entire contents of which are incorporated herein by reference.
Eligible patients were postmenopausal women aged 18 years or older with metastatic or unresectable locally recurrent breast cancer that was histologically confirmed as ER+/HER2− invasive breast cancer (any progesterone receptor status), with Ki67 greater than 15% in primary or metastatic tissue, or grade 3 TNBC, to enrich for more highly proliferative cancers that may be more dependent on AURKA. HER2− negative was defined as immunohistochemistry (IHC) status of 0, 1+, or 2+(if IHC was 2+, a negative FISH test was required with a ratio <2.0 and an average HER2 copy number <4.0 signals/cell). ER-negative and progesterone receptor (PR)-negative status was defined as ER and PR less than 1% nuclei positive by IHC. […] An Eastern Cooperative Group (ECOG) performance status of 0 or 1 and adequate hematologic, cardiac, renal, and liver function were required. Eligible patients were required to have measurable disease by Response Evaluation Criteria in Solid Tumors (RECIST v 1.1) criteria, or lytic or mixed blastic/lytic bone-only disease. Patients with untreated or progressing brain metastases, or those who required corticosteroids, were not eligible.
as §1
(§3) Computed tomography (CT) of chest, abdomen, and pelvis was performed at screening. Chest and abdominal CT imaging were then performed every 8 weeks after initiation of treatment for the first 32 weeks of treatment and every 12 weeks thereafter for the duration of the treatment period, and at End of Treatment (EoT). Pelvic CT imaging was obtained at subsequent tumor assessments only if pelvic metastases were identified at screening. Bone scans were obtained on all patients at screening and then every 12 weeks in patients with bone metastases on their baseline bone scan.
(§4) Patients were stratified as ER-positive, HER2-negative cohort and TN cohort based on results of ER, progesterone receptor, and HER2 measurements on their metastatic tissue, or, if not available, on their primary breast cancer tissue.
(§5) Patients' baseline demographic and disease characteristics were summarized for the intent-to-treat population, which included all patients registered on study and were described by means with SDs and medians with ranges for continuous variables and by numbers with percentages for categorical variables. PFS was defined as the time from date of registration in the study to the date of first progression of disease or the date of death. Patients whose disease had not progressed were censored at the last contact date. OS was measured from the date of registration to the date of death. PFS and OS were estimated using Kaplan-Meier methods with 95% CIs in the intent-to-treat population and compared by log-rank tests.
(§6) The protocol-defined evaluable population included all eligible patients who received at least 1 dose of study drug. CBR and ORR were examined using univariate and multivariate approaches with Fisher exact tests and the logistic regression models. The 95% CIs were estimated for CBR and ORR assuming binomial distribution. A χ^2 test was used to estimate the differences between CBRs and ORRs in the two arms.

[4] = tested on: TN metastatic or locally recurrent breast cancer; assay: randomized phase II trial, TN cohort, efficacy; format: in vivo, human
Text: as §2
Eligible patients were postmenopausal women aged 18 years or older with metastatic or unresectable locally recurrent breast cancer that was histologically confirmed as ER+/HER2− invasive breast cancer (any progesterone receptor status), with Ki67 greater than 15% in primary or metastatic tissue, or grade 3 TNBC, to enrich for more highly proliferative cancers that may be more dependent on AURKA. HER2− negative was defined as immunohistochemistry (IHC) status of 0, 1+, or 2+(if IHC was 2+, a negative FISH test was required with a ratio <2.0 and an average HER2 copy number <4.0 signals/cell). ER-negative and progesterone receptor (PR)-negative status was defined as ER and PR less than 1% nuclei positive by IHC. Patients may have been treated with 0 or 1 chemotherapy regimen for advanced disease and with neo/adjuvant taxane therapy at least 12 months before the development of metastatic disease. An Eastern Cooperative Group (ECOG) performance status of 0 or 1 and adequate hematologic, cardiac, renal, and liver function were required. Eligible patients were required to have measurable disease by Response Evaluation Criteria in Solid Tumors (RECIST v 1.1) criteria, or lytic or mixed blastic/lytic bone-only disease. Patients with untreated or progressing brain metastases, or those who required corticosteroids, were not eligible.
as §1, §3, §4
The TN and ER-positive, HER2-negative cohorts were analyzed independently, and no change to the statistical plan was made based on the underaccrual to the TN group.
as §5, §6

[5] = phase II trial, adverse events (safety population, CTCAE v4.03); format: in vivo, human
Description: Safety was assessed throughout the study. Adverse events were graded and reported according to the National Cancer Institute Common Terminology Criteria for Adverse Events (CTCAE version 4.03).

[6] = Arm 1 (paclitaxel plus alisertib), n=66
[7] = ER+/HER2− cohort, evaluable patients (P+A n=58, P n=62)
[8] = TN cohort, evaluable patients (P+A n=16, P n=12)
[9] = treatment-related, ER+/HER2− and TN cohorts

Sequence of Pgp (P08183 whole entry): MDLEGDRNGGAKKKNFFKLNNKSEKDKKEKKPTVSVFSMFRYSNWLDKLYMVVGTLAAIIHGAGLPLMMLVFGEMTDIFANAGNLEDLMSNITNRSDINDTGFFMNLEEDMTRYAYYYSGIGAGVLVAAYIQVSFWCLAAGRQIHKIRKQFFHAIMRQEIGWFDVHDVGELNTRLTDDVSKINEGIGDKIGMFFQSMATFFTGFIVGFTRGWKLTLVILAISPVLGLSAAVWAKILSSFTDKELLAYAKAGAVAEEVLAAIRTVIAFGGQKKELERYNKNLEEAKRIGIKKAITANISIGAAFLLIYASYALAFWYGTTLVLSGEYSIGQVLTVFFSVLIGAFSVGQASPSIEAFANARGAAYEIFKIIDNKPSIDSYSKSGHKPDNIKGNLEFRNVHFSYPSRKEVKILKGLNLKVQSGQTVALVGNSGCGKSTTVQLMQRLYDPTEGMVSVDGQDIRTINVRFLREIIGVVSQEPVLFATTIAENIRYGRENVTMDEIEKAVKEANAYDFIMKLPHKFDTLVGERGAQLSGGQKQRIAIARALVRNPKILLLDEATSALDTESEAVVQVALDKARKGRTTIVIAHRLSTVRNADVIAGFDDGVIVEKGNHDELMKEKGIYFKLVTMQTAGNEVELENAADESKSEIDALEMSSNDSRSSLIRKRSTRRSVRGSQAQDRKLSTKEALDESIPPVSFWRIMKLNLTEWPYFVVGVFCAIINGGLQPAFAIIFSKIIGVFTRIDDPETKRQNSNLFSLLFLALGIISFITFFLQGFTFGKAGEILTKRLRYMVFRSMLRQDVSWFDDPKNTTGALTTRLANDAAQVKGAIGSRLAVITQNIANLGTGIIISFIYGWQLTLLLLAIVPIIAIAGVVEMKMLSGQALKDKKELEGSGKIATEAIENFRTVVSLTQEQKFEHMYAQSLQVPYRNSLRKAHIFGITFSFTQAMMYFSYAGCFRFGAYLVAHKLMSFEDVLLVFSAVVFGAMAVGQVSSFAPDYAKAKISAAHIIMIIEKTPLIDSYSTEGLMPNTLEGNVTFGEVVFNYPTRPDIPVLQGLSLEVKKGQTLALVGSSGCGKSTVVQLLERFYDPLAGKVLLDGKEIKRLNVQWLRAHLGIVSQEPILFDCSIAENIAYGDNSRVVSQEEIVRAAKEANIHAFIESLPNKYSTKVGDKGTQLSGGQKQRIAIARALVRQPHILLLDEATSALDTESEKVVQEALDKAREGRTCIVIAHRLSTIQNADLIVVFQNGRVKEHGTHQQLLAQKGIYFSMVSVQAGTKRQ

Compound: COc1cc(Nc2ncc3c(n2)-c2ccc(Cl)cc2C(c2c(F)cccc2OC)=NC3)ccc1C(=O)O [Alisertib, 4-{[9-chloro-7-(2-fluoro-6-methoxyphenyl)-5H-pyrimido[5,4-d][2]benzazepin-2-yl]amino}-2-methoxybenzoic acid]
- effect of combination in breast cancer xenograft models [1]: Synergistic or additive effects
- Patients with both dose delay and reduction [2, 6]: (62.1) %
- Patients with dose delay alone [2, 6]: (18.2) %
- Patients with dose discontinuation [2, 6]: (30.3) %
- Patients with dose increased [2, 6]: (1.5) %
- Patients with dose reduction alone [2, 6]: (7.6) %
- Patients with both dose delay and reduction ([2]; Arm 1 (paclitaxel plus alisertib), n=66, listed as alisertib): 62.1%
- Pgp-mediated efflux of paclitaxel (Pgp): inhibited Pgp-mediated efflux of paclitaxel

Compound: CC(=O)O[C@H]1C(=O)[C@@]2(C)[C@H]([C@H](OC(=O)c3ccccc3)[C@]3(O)C[C@H](OC(=O)[C@H](O)[C@@H](NC(=O)c4ccccc4)c4ccccc4)C(C)=C1C3(C)C)[C@]1(OC(C)=O)CO[C@@H]1C[C@@H]2O [Paclitaxel, (2α,4α,5β,7β,10β,13α)-4,10-Bis(acetyloxy)-13-{[(2R,3S)-3-(benzoylamino)-2-hydroxy-3-phenylpropanoyl]oxy}-1,7-dihydroxy-9-oxo-5,20-epoxytax-11-en-2-yl benzoate]
- median (IQR) PFS in patients previously treated with palbociclib ([3]; 30 patients pretreated with palbociclib for MBC (16 P, 14 P+A), listed as paclitaxel alone): 5.6 (3.0-10.6) months and 5.6 months
- CBR in patients pretreated with palbociclib ([3]; ER+/HER2− cohort): 37.5%
- Best Overall Response: CR [3, 7]: 0%
- Best Overall Response: PD [3, 7]: 8 (12.9) %
- Best Overall Response: SD [3, 7]: 33 (53.2) %
- CBR (CR + PR + SD ≥ 6 months) ([3]; ER+/HER2− cohort, evaluable patients (P+A n=58, P n=62), listed as P): 35 (56.5) %
- CBR (CR + PR + SD ≥ 6 months) ([3]; ER+/HER2− cohort, evaluable patients (P+A n=58, P n=62), listed as paclitaxel alone): 56.5%
- estimated PFS at 12 months ([3]; ER-positive, HER2-negative MBC): 15.4%
- median (IQR) PFS ([3]; ER-positive, HER2-negative MBC, intent-to-treat, listed as paclitaxel alone): 7.1 (3.8-10.6) months and 7.1 months
- median (IQR) OS ([3]; median follow-up 22 months): 25.1 (11.0-31.4) months
- median (IQR) PFS ([4]; 35 patients with TN MBC, intent-to-treat, listed as paclitaxel alone): 5.7 (2.9-8.2) months and 5.7 months
- Best Overall Response: CR [4, 8]: 0%
- Best Overall Response: PD [4, 8]: 2 (16.7) %
- Best Overall Response: PR [4, 8]: 5 (41.7) %
- Best Overall Response: SD [4, 8]: 5 (41.7) %
- CBR (CR + PR + SD ≥ 6 months) [4, 8]: 7 (58.3) %
- ORR (CR + PR) [4, 8]: 5 (41.7) %
- median (IQR) OS ([4]; median follow-up 13.7 months): 12.7 (6.8-23.5) months
- grade 3 or 4 anemia, patients ([5]; all patients combined): 1.2%
- grade 3 or 4 diarrhea, patients ([5]; all patients combined): 0%
- grade 3 or 4 neutropenia, patients ([5]; all patients combined): 16.4%
- grade 3 or 4 stomatitis or oral mucositis, patients ([5]; all patients combined): 0%
- grade 3 or 4 neuropathy, patients ([5]; in vivo): 11.40%
- patients who received standard-dose (5 μg/kg) filgrastim ([5]; in vivo): 15.70%
- Anemia Grade1 [5, 9]: 5 (5.9) n (%)
- Anemia Grade2 [5, 9]: 5 (5.9) n (%)
- Anemia Grade3 [5, 9]: 1 (1.2) n (%)
- Anemia Grade4 [5, 9]: 0 n (%)
- Anemia Total [5, 9]: 11 (12.9) n (%)
- Diarrhea Grade1 [5, 9]: 9 (10.6) n (%)
- Diarrhea Grade2 [5, 9]: 2 (2.4) n (%)
- Diarrhea Grade3 [5, 9]: 0 n (%)
- Diarrhea Grade4 [5, 9]: 0 n (%)
- Diarrhea Total [5, 9]: 11 (12.9) n (%)
- Dizziness Grade1 [5, 9]: 2 (2.4) n (%)
- Dizziness Grade2 [5, 9]: 0 n (%)
- Dizziness Grade3 [5, 9]: 0 n (%)
- Dizziness Grade4 [5, 9]: 0 n (%)
- Dizziness Total [5, 9]: 2 (2.4) n (%)
- Fatigue Grade1 [5, 9]: 26 (30.6) n (%)
- Fatigue Grade2 [5, 9]: 6 (7.1) n (%)
- Fatigue Grade3 [5, 9]: 2 (2.4) n (%)
- Fatigue Grade4 [5, 9]: 0 n (%)
- Fatigue Total [5, 9]: 34 (40.0) n (%)
- Febrile neutropenia Grade1 [5, 9]: 0 n (%)
- Febrile neutropenia Grade2 [5, 9]: 0 n (%)
- Febrile neutropenia Grade3 [5, 9]: 0 n (%)
- Febrile neutropenia Grade4 [5, 9]: 0 n (%)
- Febrile neutropenia Total [5, 9]: 0 n (%)
- Headache Grade1 [5, 9]: 4 (4.7) n (%)
- Headache Grade2 [5, 9]: 1 (1.2) n (%)
- Headache Grade3 [5, 9]: 0 n (%)
- Headache Grade4 [5, 9]: 0 n (%)
- Headache Total [5, 9]: 5 (5.9) n (%)
- Leukopenia Grade1 [5, 9]: 2 (2.4) n (%)
- Leukopenia Grade2 [5, 9]: 1 (1.2) n (%)
- Leukopenia Grade3 [5, 9]: 2 (2.4) n (%)
- Leukopenia Grade4 [5, 9]: 0 n (%)
- Leukopenia Total [5, 9]: 5 (5.9) n (%)
- Mucositis oral Grade1 [5, 9]: 4 (4.7) n (%)
- Mucositis oral Grade2 [5, 9]: 0 n (%)
- Mucositis oral Grade3 [5, 9]: 0 n (%)
- Mucositis oral Grade4 [5, 9]: 0 n (%)
- Mucositis oral Total [5, 9]: 4 (4.7) n (%)
- Nausea Grade1 [5, 9]: 19 (22.4) n (%)
- Nausea Grade2 [5, 9]: 4 (4.7) n (%)
- Nausea Grade3 [5, 9]: 1 (1.2) n (%)
- Nausea Grade4 [5, 9]: 0 n (%)
- Nausea Total [5, 9]: 24 (28.2) n (%)
- Neuropathy Grade1 [5, 9]: 9 (12.9) n (%)
- Neuropathy Grade2 [5, 9]: 8 (11.4) n (%)
- Neuropathy Grade3 [5, 9]: 8 (11.4) n (%)
- Neuropathy Grade4 [5, 9]: 0 n (%)
- Neuropathy Total [5, 9]: 25 (35.7) n (%)
- Neutropenia Grade1 [5, 9]: 1 (1.2) n (%)
- Neutropenia Grade2 [5, 9]: 3 (3.5) n (%)
- Neutropenia Grade3 [5, 9]: 11 (12.9) n (%)
- Neutropenia Grade4 [5, 9]: 3 (3.5) n (%)
- Neutropenia Total [5, 9]: 18 (21.2) n (%)
- Stomatitis Grade1 [5, 9]: 7 (8.2) n (%)
- Stomatitis Grade2 [5, 9]: 0 n (%)
- Stomatitis Grade3 [5, 9]: 0 n (%)
- Stomatitis Grade4 [5, 9]: 0 n (%)
- Stomatitis Total [5, 9]: 7 (8.2) n (%)
- Thrombocytopenia Grade1 [5, 9]: 0 n (%)
- Thrombocytopenia Grade2 [5, 9]: 0 n (%)
- Thrombocytopenia Grade3 [5, 9]: 0 n (%)
- Thrombocytopenia Grade4 [5, 9]: 0 n (%)
- Thrombocytopenia Total [5, 9]: 0 n (%)
- Patients with both dose delay and reduction [2, 6]: (16.7) %
- Patients with dose delay alone [2, 6]: (63.6) %
- Patients with dose discontinuation [2, 6]: (16.7) %
- Patients with dose increased [2, 6]: (3.0) %
- Patients with dose reduction alone [2, 6]: (1.5) %
- Patients with dose delay alone ([2]; Arm 1 (paclitaxel plus alisertib), n=66, listed as paclitaxel): 63.6%
- Patients with both dose delay and reduction ([2]; Arm 2 (paclitaxel alone), n=70): (31.4) %
- Patients with dose delay alone ([2]; Arm 2 (paclitaxel alone), n=70): (14.3) %
- Patients with dose discontinuation ([2]; Arm 2 (paclitaxel alone), n=70): (11.4) %
- Patients with dose increased ([2]; Arm 2 (paclitaxel alone), n=70): 0%
- Patients with dose reduction alone ([2]; Arm 2 (paclitaxel alone), n=70): (2.9) %
- Patients with both dose delay and reduction ([2]; Arm 2 (paclitaxel alone), n=70, listed as paclitaxel alone): 31.4%
